Paper PMC9465178, “Cinnamaldehyde derivatives act as antimicrobial agents against Acinetobacter baumannii through the inhibition of cell division” (Frontiers in Microbiology, 2022)
Values after ≈ are worked out from the molar mass of the structure shown.

Tests used:
human red blood cells = assay: Hemolysis assay; assay type: cell-based; settings: fresh human RBCs, 1 h, 37°C, concentrations up to 4 × MIC (concentration in the value words)
Description: The hemolysis assay was performed using fresh human red blood cells (RBCs). […] These were performed in quadruplicate. Thereafter, 192 μL RBCs were added into all wells and the plates were incubated at 37°C under constant shaking (100 rpm) for 1 h. RBCs were precipitated by centrifugation of the plates (1,000× g for 3 min). An aliquot (100 μL) of each supernatant was transferred into a new 96-microwell plate and the A450 nm was determined using a PerkinElmer Enspire® plate reader. The fraction of intact RBC for each sample was determined as fraction of the intact RBCs for the sample without the addition of compounds (set at 100%) and plotted as a function of compound concentration.
A 1% (v/v) Triton X-100 was used to indicate complete RBC lysis (^‡). […] The assays were performed in quadruplicates. The plates were incubated at 37°C while constantly shaking at 100 rpm for 1 h. Intact RBCs were removed by centrifugation and the presence of hemolytic products in the supernatant were determined by measuring the absorbance at A450 nm. The results are presented in mean ± SEM. Statistical analysis was performed using one-way ANOVA and the asterisks (*) represent statistical significance (*p < 0.05; **p < 0.005; ***p < 0.0005; ****p < 0.0001).

Caenorhabditis elegans = assay: Nematode toxicity (survival); assay type: in vivo; settings: 1 × and 2 × MIC, up to 72 h, 25°C
Description: Protocols for growing, harvesting, and synchronizing C. elegans have been previously described ([Porta-de-la-Riva et al., 2012]; [Chai et al., 2020]) and were performed with the following modifications. The nematodes were treated with LXC compounds 1 to 6 at 1 × and 2 × MIC with at least 3 replicates using a final DMSO concentration of 2% (v/v). The plate was incubated at 25°C and the number of live vs dead nematodes was enumerated every 24 h for 72 h. […] The percentage of living nematodes at each time point across 72 h was calculated to give the percentage of survival.
FIGURE 10 The LXC compounds (apart from compound 5) were not cytotoxic to C. elegans nematodes. (A–F) C. elegans nematodes were cultured on nematode growth media agar plate and harvested in optimized growth media, with E. coli as its primary source of nutrient. […] The nematodes were counted under a light microscope at 400× magnification and the live nematodes at 72 h was indicated as a fraction of the starting number of nematodes (percentage survival). The results are presented in mean percentage of survival ± SEM. Statistical analysis was performed using two-way ANOVA and the asterisks (*) represent statistical significance: LXC 41 (5) at time 72 h (*p < 0.05).

E. coli ATCC 25922 = tested on: E. coli ATCC 25922; set-up: method as in Li et al., 2015a,b; settings: ref Li et al., 2015a,b; cited from earlier work
[1] = tested on: Pseudomonas aeruginosa ATCC 27853; set-up: method as in Li et al., 2015a,b; settings: ref Li et al., 2015a,b; cited from earlier work

| Compound | Hemolytic activity (human red blood cells) | Toxicity toward C. elegans (survival) (Caenorhabditis elegans) | MIC (E. coli ATCC 25922) [µg/mL] | MIC [1] [µg/mL] |
| --- | --- | --- | --- | --- |
| COc1ccc(/C=C/C(=O)n2c(C)nc3ccccc32)cc1OC [Compound 5] | only non-lytic at a low concentration (0.25 × MIC, Figure 9E) | significant toxicity (p < 0.05) but only after 72 h treatment |  |  |
| Cc1nc2ccccc2n1C(=O)/C=C/c1ccc(Cl)cc1 [Compound 3] |  | do not have in vivo toxicity in this model at 2 × MICs for up to 72 h |  |  |
| Cc1nc2ccccc2n1C(=O)/C=C/c1ccc(Br)cc1 [Compound 4] | devoid of hemolytic activity even at the highest concentration tested (4 × MIC, Figure 9D) |  |  |  |
| Cc1nc2ccccc2n1C(=O)/C=C/c1ccc(Cl)cc1Cl [Compound 6] |  | devoid of hemolytic activity and cytotoxicity against mammalian cells in vitro, as well as adverse activity in a Caenorhabditis elegans nematode model |  |  |
| Cc1nc2ccccc2n1C(=O)/C=C/c1ccccc1 [Compound 1] |  | do not have in vivo toxicity in this model at 2 × MICs for up to 72 h | 128 (≈ 488 µM) | 128 (≈ 488 µM) |
| Cc1nc2ccccc2n1C(=O)/C=C/c1ccc(F)cc1 [Compound 2] |  | do not have in vivo toxicity in this model at 2 × MICs for up to 72 h |  |  |
